Measured values reported in article PMC12305494, “Discovery of PXR Antagonist MI891 and PXR Degrader MI1013 and Their Roles in Hepatic Gene Regulation” (Journal of Medicinal Chemistry, 2025).
Substitutions are numbered along the chain they refer to. Where two headings read alike, the source gives them in different places.

Legend:
human CAR LBD [1] = molecular target: T1, human CAR LBD (Homo sapiens, UniProt Q14994); experiment: CAR LBD assembly assay (CAR AA); assay type: cell-based; details: na = no activity; tox = cytotoxicity in HepG2 cells
T1 construct: constructs encoding helices 3–12 and helix 1 of human CAR LBD; expressed in transfected cells; host or cells: HepG2
T1 sequence (Q14994 103-150 isoform Q14994-2 limits assumed): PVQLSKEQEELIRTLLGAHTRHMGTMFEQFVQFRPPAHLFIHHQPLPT
T1 sequence (Q14994 151-348 isoform Q14994-2 limits assumed): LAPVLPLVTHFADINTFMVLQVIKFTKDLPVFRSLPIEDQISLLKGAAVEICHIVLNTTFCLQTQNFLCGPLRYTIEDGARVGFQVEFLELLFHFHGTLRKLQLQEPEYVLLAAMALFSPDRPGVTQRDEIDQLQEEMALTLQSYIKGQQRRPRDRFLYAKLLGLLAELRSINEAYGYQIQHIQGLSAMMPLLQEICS
Source text: The CAR LBD assembly assay used constructs encoding helices 3–12 and helix 1 of human CAR LBD as described before. GL4.31[luc2P/GAL4UAS/Hygro] (pGAL4 UAS-luc) luciferase reporter vector and pRL-TK Renilla expression vector (Promega) were used in the assay in HepG2 cells transfected using Lipofectamine 3000.

human CAR LBD [2] = molecular target: T2, human CAR LBD (Homo sapiens, UniProt Q14994); experiment: LanthaScreen TR-FRET CAR Coactivator assay; assay type: biochemical; details: nb = no binding
T2 sequence (Q14994 103-352): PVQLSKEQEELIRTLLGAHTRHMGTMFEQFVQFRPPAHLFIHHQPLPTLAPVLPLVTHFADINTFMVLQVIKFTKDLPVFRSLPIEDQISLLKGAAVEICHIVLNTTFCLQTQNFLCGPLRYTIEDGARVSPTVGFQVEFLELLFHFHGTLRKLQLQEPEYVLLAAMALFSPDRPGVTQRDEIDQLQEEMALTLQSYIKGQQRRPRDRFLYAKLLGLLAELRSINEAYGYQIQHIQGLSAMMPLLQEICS
Experimental: We utilized the LanthaScreen TR-FRET CAR Coactivator Binding Assay Kit, goat (Thermo Fisher Scientific, Cat. No. PV4836), which includes GST-tagged human CAR LBD and a fluorescein-labeled PGC1α coactivator peptide. The assay was performed with slight modifications to the manufacturer’s protocol, as previously reported. […] The interaction with the PXR ligand-binding domain (LBD) was assessed using the LanthaScreen TR-FRET PXR Competitive Binding Assay (Thermo Fisher Scientific, PV4839), as previously described. This assay quantifies the ability of test compounds to displace a fluorescent PXR ligand from the receptor. Fluorescence readings were taken on a Synergy 2 Multi-Mode Microplate Reader (BioTek, Winooski, VT). The half-maximal inhibitory concentration (IC50) for PXR LBD was calculated from at least eight data points using GraphPad Prism software.

[3] = Microsomal stability, human microsomes; assay type: in vitro ADME; details: liver microsomes; for half-life at 5 μM: 0.5 mg/mL human microsomes, up to 45 min, read-out: Microsomal stability, t1/2 (min), human; for microsomal CLint at 5 μM: human microsomes, read-out: Microsomal clearance CLint (μl/min/mg), human
Experimental: (§1) The protocols and reagents for the plasma protein binding assay and metabolic stability testing in human and mouse liver microsomes are detailed in our previous report. […] The stability of compounds was tested in human and mouse microsomes (ThermoFisher Scientific). Compounds were tested in triplicate with or without NADPH wells as a negative control for cytochrome P450 metabolism. […] Each assay included a substrate with known activity as a positive control. Time points were analyzed by LC/MS/MS. The peak area for the parent compound is compared to the time zero sample in order to assess the amount of remaining compound.

[4] = Plasma stability, human plasma; assay type: in vitro ADME; details: up to 120 min, read-out: Plasma stability, t1/2 (min), human
PXR [5] = molecular target: T3, PXR (Homo sapiens, UniProt O75469); experiment: cell-based; details: PXR antagonism: PXR inhibition (IC50, μM), antagonist mode with 10 μM rifampicin; mean ± SD, n = 3
T3 sequence (O75469 1-434): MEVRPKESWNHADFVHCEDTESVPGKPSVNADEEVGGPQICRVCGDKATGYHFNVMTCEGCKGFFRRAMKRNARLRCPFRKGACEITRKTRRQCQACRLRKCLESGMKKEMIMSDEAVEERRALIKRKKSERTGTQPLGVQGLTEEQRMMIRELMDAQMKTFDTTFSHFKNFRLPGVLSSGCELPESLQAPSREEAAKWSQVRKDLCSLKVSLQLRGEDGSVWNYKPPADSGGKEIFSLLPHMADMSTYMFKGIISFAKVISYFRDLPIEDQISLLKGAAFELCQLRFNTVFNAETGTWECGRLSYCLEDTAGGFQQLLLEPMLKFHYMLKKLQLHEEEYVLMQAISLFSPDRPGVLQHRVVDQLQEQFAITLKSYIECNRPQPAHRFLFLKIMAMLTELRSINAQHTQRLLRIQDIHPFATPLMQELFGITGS

[6] = Microsomal stability, mouse microsomes; assay type: in vitro ADME; details: liver microsomes; for half-life at 5 μM: 0.5 mg/mL mouse microsomes, up to 45 min, read-out: Microsomal stability, t1/2 (min), mouse
Experimental: as §1

[7] = Plasma stability, mouse plasma; assay type: in vitro ADME; details: up to 120 min, read-out: Plasma stability, t1/2 (min), mouse
Experimental: The protocols and reagents for the plasma protein binding assay and metabolic stability testing in human and mouse liver microsomes are detailed in our previous report. Briefly, metabolic stability of compounds was assessed at a single concentration (5 μM) at t = 0, 10, 30, and at t = 45 min. The stability of compounds was tested in human and mouse microsomes (ThermoFisher Scientific). Compounds were tested in triplicate with or without NADPH wells as a negative control for cytochrome P450 metabolism. In addition to hepatic metabolism, compounds were also subjected to degradation/modification by enzymes in human (VWR International) and mouse (Biomedica, CZ) plasma for t = 0, 30, 60, and at t = 120 min. Each assay included a substrate with known activity as a positive control. Time points were analyzed by LC/MS/MS. The peak area for the parent compound is compared to the time zero sample in order to assess the amount of remaining compound.

[8] = molecular target: T4, triple mutant (S208W/S247W/C284W) PXR LBD (Homo sapiens, UniProt O75469, C284W/S208W/S247W); experiment: Mammalian two-hybrid assay, obstructed triple mutant PXR LBD with SRC-1-VP16 in HepG2; assay type: cell-based
T4 construct: the GAL4-PXR-LBD triple mutants (S247W/C284W/S208W) construct; expressed in transfected cells; host or cells: HepG2
T4 sequence (O75469 146-433 S208W/S247W/C284W limits assumed): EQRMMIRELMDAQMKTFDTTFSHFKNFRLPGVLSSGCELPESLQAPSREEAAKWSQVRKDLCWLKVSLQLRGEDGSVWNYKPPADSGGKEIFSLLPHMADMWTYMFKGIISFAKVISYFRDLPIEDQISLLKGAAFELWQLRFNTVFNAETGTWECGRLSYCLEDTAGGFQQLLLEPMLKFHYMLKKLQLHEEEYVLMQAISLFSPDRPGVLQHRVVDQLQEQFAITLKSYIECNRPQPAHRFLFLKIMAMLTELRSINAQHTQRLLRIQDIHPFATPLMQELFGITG
Source text: (§2) Additionally, the GAL4-PXR-LBD triple mutants (S247W/C284W/S208W) construct and wild-type GAL4-wtPXR vector were used for PXR LBD mutant functional two-hybrid assay as we described before. In the mammalian two-hybrid assay, HepG2 cells were cotransfected with a GAL4-hPXR LBD construct and pSCR1-VP16 construct. Renilla luciferase vector was used for the normalization of firefly luciferase activity to Renilla luciferase activity.

PXR [9] = system: PXR; design: method as in not given; details: read-out: Ki printed beside SPA70 in Figure 6A; ref not given; cited from earlier work
wild-type PXR LBD = molecular target: T5, wild-type PXR LBD (Homo sapiens, UniProt O75469); experiment: Mammalian two-hybrid assay, wt-PXR LBD with SRC-1-VP16 in HepG2; assay type: cell-based; details: MI891 at 10 μM
T5 construct: HepG2 cells were cotransfected with a GAL4-hPXR LBD construct and pSCR1-VP16 construct; expressed in transfected cells; host or cells: HepG2
T5 sequence (O75469 146-433 limits assumed): T4 sequence (O75469 146-433 S208W/S247W/C284W limits assumed) with W63S, W102S, W139C
Source text: as §2

PXR [10] = system: PXR; design: method as in not given; details: ref not given, cited from earlier work
HepaRG cells = experiment: RT-qPCR gene expression in differentiated HepaRG cells; assay type: cell-based, human; details: 48 h
Experimental: HepaRG cells (Sigma-Aldrich/Merck) were cultivated and differentiated on 12-well plates. Seeded at 26,600 cells/cm^2, they were maintained in William’s medium with supplements. After 14 days, differentiation into hepatocyte-like cells was induced using 1.5% DMSO for another 14 days.
RT-qPCR was utilized to investigate gene expression in HepaRG and PHH. Total RNA was extracted from these cells using the phenol–chloroform method. The concentration of the isolated RNA was then measured using a Nanodrop 1000 spectro-photometer (Thermo Fisher Scientific).
Following RNA isolation, reverse transcription was performed to convert RNA into complementary DNA (cDNA). This step was carried out using the High-capacity cDNA reverse transcription kit (Cat. No. 4374966, ThermoFisher Scientific). The resulting cDNA served as the template for subsequent qPCR reactions.
The qPCR reactions were conducted on the QuantStudio 6 Flex Real-Time PCR System (ThermoFisher Scientific, Waltham, Mas-sachusetts). For these reactions, TaqMan Universal master mix II (Cat. No. 4440047, ThermoFisher Scientific) and TaqMan assays (FAM) utilized in this study are detailed in the Supporting Information. To quantify gene expression, the cycle threshold (Ct) values of the target genes were normalized to the Ct values of reference genes HPRT1 or GAPDH (HepaRG) or TBP (PHH). The normalized values were then expressed as fold changes (2−ΔΔCt) relative to the DMSO control at the specified time points, with the control set as 1.

NC(=O)c1cc(Cn2cc(-c3c(-c4ccc(Cl)cc4)nc4ccc(F)cn34)nn2)ccc1Cl [Compound 10, 2-Chloro-5-((4-(2-(4-chlorophenyl)-6-fluoroimidazo[1,2-a]pyridin-3-yl)-1H-1,2,3-triazol-1-yl)methyl)benzamide]
EC50 (human CAR LBD [1]): > 10 µM | CAR TR-FRET (EC50, μM) (human CAR LBD [2]): nb | half-life at 5 μM [3]: 55 ± 9 min | microsomal CLint at 5 μM [3]: 26 ± 4 µL/min/mg | half-life [4]: > 120 min | IC50 (PXR [5]): 6.46 ± 0.6 µM | half-life at 5 μM [6]: > 45 min | half-life [7]: > 120 min

COc1ccc(OC)c(-n2nnc(S(=O)(=O)c3ccc(C(C)(C)C)cc3)c2C)c1 [SPA70, reference compound]
activation of obstructed mutated PXR LBD two-hybrid [8]: Neither MI891 nor SPA70 activated the obstructed mutated PXR LBD | Ki (PXR [9]): […] | effect on wt-PXR-LBD/SRC1-VP16 two-hybrid (wild-type PXR LBD): activated the wild-type (wt) PXR LBD construct | IC50 (PXR [10]; read-out: IC50 printed beside SPA70 in Figure 6A): […] | CYP2B6 gene expression (HepaRG cells; MI891 5 μM, SPA70 5 μM): downregulated | CYP3A4 mRNA expression (HepaRG cells; alone or with rifampicin (5 μM), concentration-dependent): CYP3A4 mRNA suppression

CCC[C@H](CC)Oc1ccc(C(=O)OC)cc1NC(=O)c1nnn(-c2cc(OC)ccc2OC)c1C [SJPYT-331]
IC50 (PXR [10]; quoted in the Introduction, read-out: PXR antagonist IC50): 0.0071 ± 0.0008 µM

NC(=O)c1cc(Cn2cc(-c3c(-c4ccc(Cl)cc4)nc4c(F)cccn34)nn2)ccc1Cl [Compound 8, 2-Chloro-5-((4-(2-(4-chlorophenyl)-8-fluoroimidazo[1,2-a]pyridin-3-yl)-1H-1,2,3-triazol-1-yl)methyl)benzamide]
EC50 (human CAR LBD [1]): 4.14 ± 0.2 µM | CAR TR-FRET (EC50, μM) (human CAR LBD [2]): nb | half-life at 5 μM [3]: 50 ± 4 min | microsomal CLint at 5 μM [3]: 28 ± 2 µL/min/mg | half-life [4]: > 120 min | IC50 (PXR [5]): 12.4 ± 6 µM | half-life at 5 μM [6]: 8 min | microsomal CLint at 5 μM ([6]; mouse microsomes, read-out: Microsomal clearance CLint (μl/min/mg), mouse): 168 ± 8 µL/min/mg | half-life [7]: > 120 min
